The values below are quoted from earlier work in article PMC3085958 (Journal of medicinal chemistry, 2011).

Molecules are shown by their SMILES. Marks after values point to notes of the source that are not given here. Some results are limits rather than exact numbers.

The data set has as its target CB2 receptors (Homo sapiens, UniProt P34972). As to conditions: Kb value.

Chain of CB2 receptors (P34972 whole entry): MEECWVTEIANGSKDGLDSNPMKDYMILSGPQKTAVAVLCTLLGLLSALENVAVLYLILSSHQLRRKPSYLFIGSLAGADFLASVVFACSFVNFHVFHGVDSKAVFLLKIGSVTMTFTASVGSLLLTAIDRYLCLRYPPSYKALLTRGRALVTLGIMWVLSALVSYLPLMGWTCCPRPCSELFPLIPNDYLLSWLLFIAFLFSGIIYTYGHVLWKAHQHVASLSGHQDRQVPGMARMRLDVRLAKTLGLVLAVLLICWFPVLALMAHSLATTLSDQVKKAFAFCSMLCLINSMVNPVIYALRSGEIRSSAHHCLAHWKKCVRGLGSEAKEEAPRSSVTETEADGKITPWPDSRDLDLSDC

Take `COc1cccc([C@H]2C[C@@H](N[C@H](C)c3ccccc3)C(=O)N2c2ccc(C(F)(F)F)cc2)c1` [Ligand 3]: the “CB2 Kb (in the CB2 Ki column)” value is > 1,980 ^c nM.
